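Each compound was tested at five concentrations against cells in 96-well plates for 48 hours. GI50 = concentration required for 50% inhibition of growth. TGI denotes the concentration required for complete inhibition of growth.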 *1 amine or outer side, *2 acyl side, *3 side chain or, on linkers, in order; H or OH if unused. Where a SMILES comes first, the peptide text is derived from it. Bridges are numbered along the chain shown (N, C = ends). Roman numbers before positions name the chains, in order. [ ]: non-standard residue; d: D form. Actinocin(9to1) = Cc1c2oc3c(C)ccc(C(=O)[*:1])c3nc-2c(C(=O)[*:2])c(N)c1=O; NMeV = CN[CH](C(=O)O)C(C)C; Sar = CNCC(=O)O
Columns and labels:
Assay in all cases: NCI tumour cell line growth inhibition, 48 h
MDA-MB-231 breast = tested on: MDA-MB-231 breast
HOP-92 NSCLC = tested on: HOP-92 NSCLC
A498 renal = tested on: A498 renal
UACC-257 melanoma = tested on: UACC-257 melanoma
NCI-H23 lung = tested on: NCI-H23 lung
COLO 205 colon = tested on: COLO 205 colon
SK-MEL-5 melanoma = tested on: SK-MEL-5 melanoma

Compound	TGI (MDA-MB-231 breast) [µM]	TGI (HOP-92 NSCLC) [µM]	TGI (A498 renal) [µM]	TGI (UACC-257 melanoma) [µM]	TGI (NCI-H23 lung) [µM]	TGI (COLO 205 colon) [µM]	TGI (SK-MEL-5 melanoma) [µM]	GI50 (MDA-MB-231 breast) [µM]	GI50 (HOP-92 NSCLC) [µM]	GI50 (A498 renal) [µM]	GI50 (NCI-H23 lung) [µM]	GI50 (COLO 205 colon) [µM]	GI50 (SK-MEL-5 melanoma) [µM]
CC(C)Oc1cc2c(cc1O)CC[C@@H]1[C@@H]2CC[C@]2(C)[C@@H](O)CC[C@@H]12	26.6	33.5	26.9	24.6	37.4	40.7	12.8	–	–	–	–	–	–
COC(=O)c1c(C)cccc1C1CN=NC12Cc1cccc(C)c1C2=O (stereo not drawn)	–	47.6	> 100	57.7	> 100	> 100	40.1	–	–	–	–	–	–
COC(CC1(CCNc2ccccc2)C(=O)N(COCC[Si](C)(C)C)c2ccccc21)OC (stereo not drawn)	48.4	42.2	47.5	29.5	32.9	9.09	> 100	–	–	–	–	–	–
O=C(O)c1cc(Nc2c(O)c3c(c(O)c2Cl)C(=O)C=CC3=O)ccc1O	> 10	> 10	> 10	> 10	> 10	> 10	> 10	–	–	–	–	–	–
O=c1oc2ccccc2c(O)c1C(c1ccc(O)cc1)c1c(O)c2ccccc2oc1=O	77.7	> 100	> 100	> 100	> 100	> 100	> 100	–	–	–	–	–	–
NC(=O)CC[C@H]1C(=O)N=C(N)N1C(=O)OCc1ccccc1	> 100	–	> 100	> 100	> 100	> 100	> 100	–	–	–	–	–	–
CCn1c(O)c(C(=O)NC(C)c2ccc([N+](=O)[O-])cc2)c(=O)n(CC)c1=S (stereo not drawn)	10.8	8.48	–	16.6	4.63	3.29	11.3	–	–	–	–	–	–
Oc1ccc(O)c(Sc2nnc(CCCCCCCCc3nnc(Sc4cc(O)ccc4O)o3)o2)c1	> 100	65.7	> 100	> 100	> 100	> 100	> 100	–	–	–	–	–	–
COc1ccc(C2C3=CONC3CC3CCCCC32)cc1 (stereo not drawn)	–	–	–	> 100	> 100	–	> 100	–	–	–	–	–	–
C=C(C)[C@@H]1CC[C@]2(C(=O)OC3OC(COC4OC(CO)C(OC5OC(C)C(O)C(O)C5O)C(O)C4O)C(O)C(O)C3O)CC[C@]3(C)[C@H](CC[C@@H]4[C@@]5(C)CC[C@H](O)[C@@](C)(CO)[C@@H]5CC[C@]43C)[C@@H]12 (stereo partly drawn)	> 9.18	> 6.7	> 10	> 10	> 5.57	3.2	> 8.46	–	–	–	–	–	–
CCCC(CC)c1cc(O)c(O)cc1C(CC)CCC (stereo not drawn)	> 10	> 10	> 10	> 10	> 10	> 10	> 10	–	–	–	–	–	–
CC1Cc2c(cc(N)nc2Br)NC1=O (stereo not drawn)	> 100	> 100	–	> 100	> 100	> 100	> 100	–	–	–	–	–	–
Cc1cc(C)c(C#N)c(SC(=S)NC(=O)c2ccccc2)n1	> 100	> 100	> 100	> 100	> 100	> 100	> 100	–	–	–	–	–	–
COC(C[C@H]1CCCC[C@]1(O)/C(=C\CO[Si](C(C)C)(C(C)C)C(C)C)Sc1ccccc1)OC	49.8	68.8	> 100	> 100	> 100	47.4	> 100	–	–	–	–	–	–
COc1ccc(C[C@H]2COC(=O)[C@@H]2Cc2ccccc2)cc1OC	> 100	–	> 100	> 100	> 100	–	> 100	–	–	–	–	–	–
COC(=O)NC(Nc1ccc(C)cc1)(C(F)(F)F)C(F)(F)F	> 100	> 100	> 100	> 100	> 100	> 100	> 100	–	–	–	–	–	–
C=C1CN=C(Nc2ccc(F)cc2F)S1	> 100	> 100	> 100	> 100	> 100	> 100	> 100	–	–	–	–	–	–
OCC1c2ccccc2-n2nc(-c3ccccc3)c(O)c21 (stereo not drawn)	> 100	35	–	> 100	> 100	26.5	> 100	–	–	–	–	–	–
CCC(=O)Nc1ccc(N2C(=O)/C(=C/c3ccc(O)c(OC)c3)N=C2c2ccccc2)cc1	–	> 100	36.6	71.5	> 100	–	32.8	–	–	–	–	–	–
O=C1Sc2cc3ccccc3cc2C(=O)Sc2cc3ccccc3cc21	> 100	> 87.6	> 100	> 78.7	> 100	> 100	> 100	–	–	–	–	–	–
Cc1ccc(S(=O)(=O)CC2CCCn3c2c(C#N)c2ccccc23)cc1 (stereo not drawn)	> 100	> 100	> 100	> 100	> 100	> 100	> 100	–	–	–	–	–	–
CC(=O)c1cc(S(=O)(=O)c2ccc(O)c(C(C)=O)c2)ccc1O	> 100	> 100	> 100	> 100	> 100	> 100	> 100	–	–	–	–	–	–
Cc1ccc(C2(N3CCOCC3)OC(C)(C)c3cccc4cccc2c34)cc1 (stereo not drawn)	–	25.5	32.9	34.6	34.9	31	35.1	–	–	–	–	–	–
N#C[C@H]1C(=O)C(c2nc3ccccc3[nH]2)S[C@H]1c1ccccc1 (stereo partly drawn)	–	67.3	79	> 100	76.1	> 100	> 100	–	–	–	–	–	–
C/C(=N\NC(=O)c1ccncc1)c1cccc(C(F)(F)F)c1	> 10	> 10	–	> 10	> 10	> 10	> 10	–	–	–	–	–	–
CCC(C)C(NC(=O)C1CCCN1)C(=O)NC(C(=O)NCC(=O)NC(CC(N)=O)C(=O)NC(CC(C)C)C(=O)NC(CC(C)C)C(=O)NC(CCCCN)C(N)=O)C(C)C (stereo not drawn) (H-PIVGNLLK-NH2; configuration not given here)	> 75	> 75	> 75	> 75	> 75	> 75	> 75	–	–	–	–	–	–
Nc1cc2ncnc(Nc3cccc(Br)c3)c2cn1	> 100	> 100	36.1	> 100	> 100	> 100	> 100	–	–	–	–	–	–

Compound	TGI (MDA-MB-231 breast) [µM]	TGI (HOP-92 NSCLC) [µM]	TGI (A498 renal) [µM]	TGI (UACC-257 melanoma) [µM]	TGI (NCI-H23 lung) [µM]	TGI (COLO 205 colon) [µM]	TGI (SK-MEL-5 melanoma) [µM]	GI50 (MDA-MB-231 breast) [µM]	GI50 (HOP-92 NSCLC) [µM]	GI50 (A498 renal) [µM]	GI50 (NCI-H23 lung) [µM]	GI50 (COLO 205 colon) [µM]	GI50 (SK-MEL-5 melanoma) [µM]
O=C1/C(=C/c2cccs2)N=C(c2ccccc2)N1c1nc2ccccc2s1	> 100	> 100	> 100	> 100	> 100	–	> 100	–	–	–	–	–	–
Cc1ccc(C(=O)NN=C(/N=N/c2cccc(C)c2)c2ccc(N(C)C)cc2)cc1	> 100	> 100	–	> 100	> 100	> 100	> 100	–	–	–	–	–	–
O=C1c2ccccc2C2(c3ccc(Cl)cc3)N[C@@H]3CCCC[C@@H]3N12 (stereo partly drawn)	> 100	> 100	> 100	> 100	> 100	> 100	> 100	–	–	–	–	–	–
CCCCN(CCCC)C1=Nc2ccccc2-n2c(nnc2C(=O)OCC)C1	> 100	81.5	–	90	> 100	36.2	38.5	–	–	–	–	–	–
O=C1/C(=C(/Br)I)c2ccccc2-c2ccccc21	19.2	8.07	30.2	18.5	46.4	4.22	31.1	–	–	–	–	–	–
CC(=O)OCC1(CNc2nc(N)ncc2C#N)CC(CCc2ccccc2)C1 (stereo not drawn)	> 100	49.9	> 100	> 100	> 100	> 100	42.8	–	–	–	–	–	–
CC(=O)NCC1OC2COC(c3ccccc3)OC2C2N=C(c3ccccc3)OC12 (stereo not drawn)	> 100	> 100	> 100	> 100	> 100	> 100	> 100	–	–	–	–	–	–
Cc1c2oc3c(C)ccc(C(=O)NC4C(=O)NC(Cc5ccc(O)cc5)C(=O)N5CCCC5C(=O)N(C)CC(=O)N(C)C(C(C)C)C(=O)OC4C)c3nc-2c(C(=O)NC2C(=O)NC(Cc3ccc(O)cc3)C(=O)N3CCCC3C(=O)N(C)CC(=O)N(C)C(C(C)C)C(=O)OC2C)c(N)c1=O (stereo not drawn) (I: TYP[Sar][NMeV] / II: TYP[Sar][NMeV]; ester I:1-I:C, II:1-II:C; linker I:N-II:N via Actinocin(9to1); configuration not given here)	> 66.9	–	56.1	> 100	> 79.2	> 100	> 86.1	–	–	–	–	–	–
Cn1c(O)c(/C=N/c2ncccn2)c(=O)[nH]c1=O	> 100	> 100	> 100	> 100	> 100	> 100	> 100	–	–	–	–	–	–
CN1C(=O)C(CCO)(C(C)(C)C)c2ccccc21 (stereo not drawn)	> 100	> 100	–	> 100	> 100	> 100	> 100	–	–	–	–	–	–
COc1ccc(-c2cc(-c3ccc(OC)c(OC)c3)nc(SCCCC(=O)NO)n2)cc1	8.78	5.63	3.06	–	6.16	5.98	3.68	1.94	1.5	1.39	1.96	1.75	1.82
O=[N+]([O-])c1cccc([N+](=O)[O-])c1Cl	51.7	45.3	38.8	23.6	40.5	91.2	32.7	–	–	–	–	–	–
CC(C)(C)C(=O)O[C@H]1C=C[C@@H](O)[C@@H]2[C@H]1[C@@H]1C=C[C@H]2C1	> 100	> 100	50.8	27.1	48	> 100	–	–	–	–	–	–	–
COc1ccc(/C=N/N=C(\N)NO)c(OC)c1OC	> 100	71.2	77.6	–	> 100	> 100	72	–	–	–	–	–	–
COc1cccc(OC/C(N=Cc2ccncc2)=N/NC(=O)c2ccncc2)c1	> 100	> 100	> 100	> 100	> 100	> 100	–	–	–	–	–	–	–
C/C(=C\COP(=O)(O)OP(=O)(O)O)CC/C=C(\C)CNc1ccccc1	> 50	–	–	> 50	–	> 50	> 50	–	–	–	–	–	–
Cc1sc2nc3n(sc4nc5sc(C)c(C)c5c(=O)n43)c(=O)c2c1C	> 100	> 100	–	> 100	> 100	> 100	> 100	–	–	–	–	–	–
CCCCCCCCCCC[N+]1(Cc2ccccc2)CC2CCN(Cc3ccccc3)CC2C1 (stereo not drawn)	–	1.62	2.88	1.14	1.03	2.18	0.357	–	–	–	–	–	–
O=C1NC(=S)N/C1=C\c1ccc(Sc2ccccc2C(=O)O)s1	> 100	–	> 100	> 100	> 100	> 100	> 100	–	–	–	–	–	–
CCOC(=O)c1c(SCCN2CCCCC2)n(-c2ccccc2)c(=S)n(-c2ccccc2)c1=O	38.4	30.8	–	17.1	34.8	19.9	29.7	–	–	–	–	–	–
CCOC(=O)NC(OCc1ccccc1)(C(=O)OC)C(F)(F)F (stereo not drawn)	> 100	> 100	–	> 100	> 100	> 100	> 100	–	–	–	–	–	–
c1ccc2c(c1)ccc1nc(-c3ccc4c(c3)OCO4)c3c(c12)CCC3	> 100	–	> 100	> 100	> 100	> 100	–	–	–	–	–	–	–
CN1CCCC(OC(=O)c2cc3cc(CCl)ccc3oc2=O)C1 (stereo not drawn)	52.1	30.5	–	40.2	45.1	35.7	33.9	–	–	–	–	–	–
Cc1cn(C2CC(SCCO)C(CO)O2)c(=O)[nH]c1=O (stereo not drawn)	> 100	> 100	> 100	> 100	> 100	> 100	–	–	–	–	–	–	–
COc1c(-c2ccc(F)cc2)oc2cc(O)cc(O)c2c1=O	43.9	> 100	> 100	–	78.2	36.7	30.1	–	–	–	–	–	–
CCCCNC(=S)Nc1nc(C(=O)NNC(=S)NCc2ccccc2)cs1	> 100	–	> 100	83.9	> 100	> 100	70.2	–	–	–	–	–	–
CN(c1ccc(Cl)cc1)S(=O)(=O)c1ccccc1	> 100	–	–	> 100	> 100	> 100	47	–	–	–	–	–	–
